Assay [1] deals with T1, SARS-CoV-2 PLpro (nsp3 1564–1878) (Severe acute respiratory syndrome coronavirus 2, UniProt P0DTD1). As to the kind of experiment: biochemical. The arrangement: FRET-quenched peptide (Pro3) cleavage by PLpro, 10 min pre-incubation, slope over 20 min, normalised to no-compound control. Particulars: low concentration screen, read-out: % of control remaining.
Assay [2] has as its target T1, SARS-CoV-2 PLpro (nsp3 1564–1878). As to the kind of experiment: biochemical. Particulars: high concentration screen, read-out: % of control remaining. Further details: FRET-quenched peptide (Pro3) cleavage by PLpro, 10 min pre-incubation, slope over 20 min, normalised to no-compound control.

Counter-ions that a name gives are not always drawn. Like-named read-outs stand apart in the source and are kept apart here. Where a SMILES comes first, the peptide text is derived from it. The star is where a group is joined. PhAc = O=C(Cc1ccccc1)*

With `C[C@@H]1C[C@H]2CC[C@H](O2)[C@H](C)C(=O)O[C@@H](C)C[C@@H]2CC[C@@H](O2)[C@@H](C)C(=O)O[C@H](C)C[C@H]2CC[C@H](O2)[C@H](C)C(=O)O[C@@H](C)C[C@@H]2CC[C@@H](O2)[C@@H](C)C(=O)O1` [Nonactin], the remaining activity at 1.25 µM in assay [1] (Well no.=3330) was determined as 95.5%. Moreover, the remaining activity at 3.75 µM in assay [2] (Well no.=3330) worked out at 94.1%.

`CCCCCCCCCCCCCCCCCCC(=O)O` [Nonadecanoic acid]: the remaining activity at 1.25 µM in assay [1] (Well no.=4362) was determined as 100%. For the same molecule, the remaining activity at 3.75 µM in assay [2] (Well no.=4362) was determined as 95.6%.

As for `CCOC(=O)CNC(=O)[C@@H]1CCCN1C(=O)Cc1ccccc1` [Noopept] (PhAc-Pro-Gly-OEt), in assay [1] (Well no.=5674), the remaining activity at 1.25 µM was found to be 104%. Besides, in assay [2] (Well no.=5674), the remaining activity at 3.75 µM is 104%.

`O=C1OC(=O)[C@H]2[C@@H]1[C@@H]1CC[C@H]2O1` [Norcantharidin]: the remaining activity at 1.25 µM in assay [1] (Well no.=909) came to 100%. Also, the remaining activity at 3.75 µM in assay [2] (Well no.=909) was 97.7%.

As to `c1ccc2c3c([nH]c2c1)CNCC3` [Noreleagnine], in assay [1] (Well no.=3260), the remaining activity at 1.25 µM is 101%. The remaining activity at 3.75 µM in assay [2] (Well no.=3260) was 101%.

With `NC[C@H](O)c1ccc(O)c(O)c1` [Norepinephrine (bitartrate monohydrate)], the remaining activity at 1.25 µM in assay [1] (Well no.=6517) was 101%. The remaining activity at 3.75 µM in assay [2] (Well no.=6517) came to 98.7%.

Take `NC[C@H](O)c1ccc(O)c(O)c1` [Norepinephrine]: in assay [1] (Well no.=7015), the remaining activity at 1.25 µM is 106%. Moreover, the remaining activity at 3.75 µM in assay [2] (Well no.=7015) is 103%.

Regarding `C#C[C@]1(OC(C)=O)CC[C@H]2[C@@H]3CCC4=CC(=O)CC[C@@H]4[C@H]3CC[C@@]21C` [Norethindrone acetate], the remaining activity at 1.25 µM in assay [1] (Well no.=5895) is 99.8%. In assay [2] (Well no.=5895), the remaining activity at 3.75 µM worked out at 101%.

For the molecule `C#C[C@]1(O)CC[C@H]2[C@@H]3CCC4=CC(=O)CC[C@@H]4[C@H]3CC[C@@]21C` [Norethindrone], the remaining activity at 1.25 µM in assay [1] (Well no.=2013) stood at 96.6%. Besides, in assay [2] (Well no.=2013), the remaining activity at 3.75 µM is 96.6%.

Consider `CCn1cc(C(=O)O)c(=O)c2cc(F)c(N3CCNCC3)cc21` [Norfloxacin], for which the remaining activity at 1.25 µM in assay [1] (Well no.=2043) is 109%. Moreover, the remaining activity at 3.75 µM in assay [2] (Well no.=2043) worked out at 105%.

For the molecule `C/C=C1/CN2CC[C@]34C(=C(C=O)[C@H]1C[C@H]23)Nc1ccccc14` [Norfluorocurarine], in assay [1] (Well no.=3165), the remaining activity at 1.25 µM was found to be 95.2%. In assay [2] (Well no.=3165), the remaining activity at 3.75 µM amounted to 97.4%.

As to `c1ccc2c(c1)[nH]c1cnccc12` [Norharmane], in assay [1] (Well no.=3262), the remaining activity at 1.25 µM was found to be 101%. Also, the remaining activity at 3.75 µM in assay [2] (Well no.=3262) is 98.5%.

Turning to `CNCCC=C1c2ccccc2CCc2ccccc21` [Nortriptyline hydrochloride], the remaining activity at 1.25 µM in assay [1] (Well no.=1097) came to 95.3%. Also, the remaining activity at 3.75 µM in assay [2] (Well no.=1097) came out at 96.6%.

As to `COc1ccc2c(c1OC)C(=O)O[C@@H]2[C@H]1c2c(cc3c(c2OC)OCO3)CCN1C` [Noscapine hydrchloride], in assay [1] (Well no.=957), the remaining activity at 1.25 µM was found to be 93%. For the same molecule, in assay [2] (Well no.=957), the remaining activity at 3.75 µM was 95.4%.

Take `COc1ccc2c(c1OC)C(=O)O[C@@H]2[C@H]1c2c(cc3c(c2OC)OCO3)CCN1C` [Noscapine]: in assay [1] (Well no.=6613), the remaining activity at 1.25 µM came to 106%. The remaining activity at 3.75 µM in assay [2] (Well no.=6613) turned out to be 106%.

`COc1cc2c3c(c1OC)-c1ccccc1C[C@H]3N(C)CC2` [Nuciferine]: the remaining activity at 1.25 µM in assay [1] (Well no.=8335) turned out to be 95.2%. Besides, the remaining activity at 3.75 µM in assay [2] (Well no.=8335) was 89%.

In the case of `COc1ccc(C2=N[C@@H](c3ccc(Cl)cc3)[C@@H](c3ccc(Cl)cc3)N2C(=O)N2CCNC(=O)C2)c(OC(C)C)c1` [Nutlin (3)], the remaining activity at 1.25 µM came out at 98.9% in assay [1] (Well no.=6356) and 103% in assay [1] (Well no.=7836). The remaining activity at 3.75 µM is 101% in assay [2] (Well no.=6356) and 99.3% in assay [2] (Well no.=7836).

Turning to `COc1ccc(C2=N[C@@H](c3ccc(Cl)cc3)[C@@H](c3ccc(Cl)cc3)N2C(=O)N2CCNC(=O)C2)c(OC(C)C)c1` [Nutlin (3a)], the remaining activity at 1.25 µM in assay [1] (Well no.=6440) amounted to 92.9%; in assay [1] (Well no.=7746), 92%. In addition, the values for the remaining activity at 3.75 µM in assay [2] (Well no.=6440) and in assay [2] (Well no.=7746) were 93.4% and 93.2%, respectively.

In the case of `COc1ccc(C2=N[C@H](c3ccc(Cl)cc3)[C@H](c3ccc(Cl)cc3)N2C(=O)N2CCNC(=O)C2)c(OC(C)C)c1` [Nutlin (3b)], the figures for the remaining activity at 1.25 µM in assay [1] (Well no.=6742) and in assay [1] (Well no.=8362) were 100% and 101%, respectively. In assay [2] (Well no.=6742), the remaining activity at 3.75 µM stood at 100%.

Turning to `COc1ccc(C2=N[C@@H](c3ccc(Cl)cc3)[C@@H](c3ccc(Cl)cc3)N2C(=O)N2CCNC(=O)C2)c(OC(C)C)c1` [Nutlin-3], the remaining activity at 1.25 µM in assay [1] (Well no.=4621) amounted to 104%. The remaining activity at 3.75 µM in assay [2] (Well no.=4621) was found to be 108%.

As to `CC(CCc1ccccc1)NC(C)C(O)c1ccc(O)cc1` (stereo not shown) [Nylidrin hydrochloride], the remaining activity at 1.25 µM in assay [1] (Well no.=940) was 96%. Besides, in assay [2] (Well no.=940), the remaining activity at 3.75 µM is 95.1%.

On to `C[C@@H]1[C@H](O)[C@@H](C)/C=C/C=C/CC/C=C/C=C/C=C/C=C/[C@H](O[C@@H]2O[C@H](C)[C@@H](O)[C@H](N)[C@@H]2O)C[C@@H]2O[C@](O)(C[C@@H](O)[C@H](O)CC[C@@H](O)C[C@@H](O)C[C@@H](O)CC(=O)O[C@H]1C)C[C@H](O)[C@H]2C(=O)O` [Nystatin], for which, in assay [1] (Well no.=2045), the remaining activity at 1.25 µM was 97.9%. The remaining activity at 3.75 µM in assay [2] (Well no.=2045) stood at 100%.

On to `O=C(NCCO)c1cc(C(=O)NCCO)cc(C(=O)NCCO)c1` [N~1~,N~3~,N~5~-tris(2-hydroxyethyl)-1,3,5-benzenetricarboxamide], for which the remaining activity at 1.25 µM in assay [1] (Well no.=6029) was found to be 96.8%. For the same molecule, the remaining activity at 3.75 µM in assay [2] (Well no.=6029) was 99.9%.

Consider `CC1(C)CC(NC(=O)C(=O)Nc2ccc(Cl)cc2)CC(C)(C)N1` [N~1~-(4-chlorophenyl)-N~2~-(2,2,6,6-tetramethyl-4-piperidinyl)ethanediamide], for which, in assay [1] (Well no.=6039), the remaining activity at 1.25 µM is 97.6%. Further, in assay [2] (Well no.=6039), the remaining activity at 3.75 µM amounted to 101%.

Take `Nc1nc(OCc2ccccc2)c2nc[nH]c2n1` [O6-benzylguanine]: the remaining activity at 1.25 µM in assay [1] (Well no.=123) was 106%. The remaining activity at 3.75 µM in assay [2] (Well no.=123) amounted to 105%.

Regarding `NOCC(=O)O` [O-(Carboxymethyl)hydroxylamine hemihydrochloride], in assay [1] (Well no.=15), the remaining activity at 1.25 µM came to 103%. Further, the remaining activity at 3.75 µM in assay [2] (Well no.=15) came out at 102%.

On to `CC(=O)OC[C@H](N)C(=O)O` [O-Acetylserine], for which the remaining activity at 1.25 µM in assay [1] (Well no.=6965) was determined as 101%. Further, in assay [2] (Well no.=6965), the remaining activity at 3.75 µM was determined as 104%.

`COc1ccc2[nH]cc(CCN)c2c1` [O-Methylserotonin hydrochloride]: the remaining activity at 1.25 µM in assay [1] (Well no.=1076) was determined as 94%. Further, in assay [2] (Well no.=1076), the remaining activity at 3.75 µM came out at 97%.

On to `N[C@@H](COP(=O)(O)O)C(=O)O` [O-Phospho-L-serine], for which the figures for the remaining activity at 1.25 µM in assay [1] (Well no.=806), in assay [1] (Well no.=6867) and in assay [1] (Well no.=6956) were 98%, 99.1% and 101%, respectively. Also, the remaining activity at 3.75 µM was 95.7% in assay [2] (Well no.=806), 99.4% in assay [2] (Well no.=6867) and 101% in assay [2] (Well no.=6956).

The values are drawn from article PMC8286840, “Identifying SARS-CoV-2 antiviral compounds by screening for small molecule inhibitors of Nsp3 papain-like protease” (Biochemical Journal, 2021).
